This is an account of results in article PMC8484451, “Characterization of fluorescent probe substrates to develop an efficient high-throughput assay for neonatal hepatic CYP3A7 inhibition screening” (Scientific Reports, 2021).

In data set [1] the target is T1, CYP3A7 (Homo sapiens, UniProt P24462).
T1 construct: recombinant human CYP3A7 Supersomes (Sf9 insect cell microsomes); with human NADPH-cytochrome P450 reductase and human cytochrome b5 (co-expressed)
The data set can be described thus: Michaelis-Menten kinetics (fluorescence). In kind it is biochemical. Conditions: read-out: DBOMF.

For data set [2], the target named is T1, CYP3A7. The data set is described as follows: fluorescent DBF O-debenzylation inhibition assay with recombinant CYP3A7. The class given is biochemical.
In data set [3] the target is T1, CYP3A7. The data set is described as follows: fluorescent DBF inhibition assay at […]. The class given is biochemical. As to conditions: read-out: % inhibition at 20 μM.
Substrate in data set [4]: c1ccc(COc2ccc3cccnc3c2)cc1
The data set can be described thus: Michaelis-Menten kinetics (fluorescence). In kind it is biochemical, Homo sapiens. Conditions: NADPH.

Substrate in data set [5]: O=C(OCc1ccccc1)c1ccccc1-c1c2ccc(=O)cc-2oc2cc(OCc3ccccc3)ccc12
The data set can be described thus: Michaelis-Menten kinetics (fluorescence); metabolites by LC-MS/MS. The class given is biochemical, Homo sapiens. Conditions: NADPH likely binds in the CYP3A7 active site mirroring native substrates.

As usually defined, the IC50 is the midpoint of a concentration-inhibition curve. In general, inhibition refers to the relative decrease from the control value, in per cent. The term kcat denotes the number of substrate molecules converted per active site and unit of time at saturation.

Regarding `O=C(OCOCc1ccccc1)c1ccccc1-c1c2ccc(=O)cc-2oc2cc(OCOCc3ccccc3)ccc12` [DBOMF, dibenzyloxymethylfluorescein], the Km on CYP3A7 [1] was determined as 1.62 µM.

In the case of `C[C@]12CC[C@H](OS(=O)(=O)O)CC1=CC[C@@H]1[C@@H]2CC[C@]2(C)C(=O)CC[C@@H]12` [DHEA-S], the half-inhibitory concentration (IC50) on CYP3A7 [2] came out at 5.31 µM.

In the case of `CC(C)CN(C[C@@H](O)[C@H](Cc1ccccc1)NC(=O)O[C@H]1CO[C@H]2OCC[C@H]21)S(=O)(=O)c1ccc(N)cc1` [Darunavir], the inhibition at 20 µM on CYP3A7 [3] is above 75%.

For the molecule `Cc1c(O)cccc1C(=O)N[C@@H](CSc1ccccc1)[C@H](O)CN1C[C@H]2CCCC[C@H]2C[C@H]1C(=O)NC(C)(C)C` [Nelfinavir], at CYP3A7 [3], the inhibition at 20 µM is above 75%.

B1: CYP3A7 (Homo sapiens) (protein)
chain: MDLIPNLAVETWLLLAVSLILLYLYGTRTHGLFKKLGIPGPTPLPFLGNALSFRKGYWTFDMECYKKYRKVWGIYDCQQPMLAITDPDMIKTVLVKECYSVFTNRRPFGPVGFMKNAISIAEDEEWKRIRSLLSPTFTSGKLKEMVPIIAQYGDVLVRNLRREAETGKPVTLKHVFGAYSMDVITSTSFGVSIDSLNNPQDPFVENTKKLLRFNPLDPFVLSIKVFPFLTPILEALNITVFPRKVISFLTKSVKQIKEGRLKETQKHRVDFLQLMIDSQNSKDSETHKALSDLELMAQSIIFIFAGYETTSSVLSFIIYELATHPDVQQKVQKEIDTVLPNKAPPTYDTVLQLEYLDMVVNETLRLFPVAMRLERVCKKDVEINGMFIPKGVVVMIPSYVLHHDPKYWTEPEKFLPERFSKKNKDNIDPYIYTPFGSGPRNCIGMRFALVNMKLALVRVLQNFSFKPCKETQIPLKLRFGGLLLTEKPIVLKAESRDETVSGA
notes: recombinant human CYP3A7 Supersomes (Sf9 insect cell microsomes); with human NADPH-cytochrome P450 reductase and human cytochrome b5 (co-expressed)
As for B1, in data set [4], the Km was 0.913 µM and the catalytic constant (kcat) came out at 0.0217 s⁻¹. Besides, in data set [5], the Km stood at 0.525 µM and the turnover number (kcat) amounted to 0.00247 s⁻¹.
